The text below walks through data of US20230339834A1, “CHLORINATED FLUOROAROMATICS AND METHODS OF USING SAME” (3M INNOVATIVE PROPERTIES COMPANY, priority 2019, published 2023).

Data set [1] is described as follows: Log KOW octanol/water partition coefficient by HPLC (OECD 117). The following applies: HPLC method. Type of data set: physicochemical. Here is the method:
Values of Log KOW (octanol/water partition coefficients) were determined by HPLC using the method described in Organization for Economic Cooperation and Development (OECD) Test Method 117, “Partition Coefficient (n-octanol/water), HPLC Method.”

A short description of data set [2]: Flash point, small scale closed cup (ASTM D-3278-96 e-1). Type of data set: physicochemical. Particulars: no flash point = non-flammable.
A short description of data set [3]: Liquid dielectric breakdown strength (ASTM D877-87). The data set is classed as physicochemical. The following applies: 2.5 mm gap, 60 Hz. Here is the method: The liquid dielectric breakdown strength measurements were performed in accordance with ASTM […]-87(1995), “Standard Test Method for Dielectric Breakdown Voltage of Insulating Liquids.” Disk electrodes 25mm in diameter, with 2.5 mm (0.10'') spacing between the electrodes, were utilized with a Phenix Technologies Model LD 60 that is specifically designed for testing in the 7-60 kV, 60 Hz (higher voltage) breakdown range. For this experiment, a frequency of 60 Hz and a ramp rate of 500 volts per second were utilized, as is typical.

Data set [4] is described as follows: Density (DDM 2911 plus Automatic Density Meter). The data set is classed as physicochemical. Here is the method:
Density was measured using DDM 2911 plus Automatic Density Meter. Before measurement, the fluid was briefly degassed in the syringe by stoppering the syringe tip and pulling on the plunger to release bubbles.

Data set [5] is classed as physicochemical. Here is the method:
The boiling points reported in Table 1 were determined using the procedures outlined in ASTM E 1719-97 “Standard Test Method for Vapor Pressure of Liquids by Ebulliometry.” First, vapor pressure was measured, and then the boiling point was calculated as described in section 10 of ASTM method […]-97.

Data set [6] in a line: Kinematic viscosity (ASTM D445-94e1). Type of data set: physicochemical. As for the experimental part: Kinematic viscosity was determined in accordance with ASTM D445-94e1 “Standard Test Method for Kinematic Viscosity of Transparent and Opaque Liquids (the Calculation of Dynamic Viscosity)”, except the bath temperature was controlled to ±0.1° C., using a ViscoSystem AVS 350 viscosity timer (Schott Instruments GmbH, Hattenbergstraße 10 55122 Mainz Germany) and Hagenbach-corrected 545-03, 545-13 or 545-20 Ubbelohde viscometers (Cannon Instruments Company, Box 812, State College, PA). For temperatures below 0° C., a Lawler temperature control bath was used.

A short description of data set [7]: Dielectric constant (ASTM D150-11, broadband dielectric spectrometer). The data set is classed as physicochemical. Here is the method: Dielectric constants were measured using an Alpha-A High Temperature Broadband Dielectric Spectrometer (Novocontrol Technologies, Montabaur, Germany) in accordance with ASTM D150-11, “Standard Test Methods for AC Loss Characteristics and Permittivity (Dielectric Constant) of Solid Electrical Insulation.” The parallel plate electrode configuration was selected for this measurement. The sample cell of parallel plates, an Agilent 16452A liquid test fixture consisting of 38 mm diameter parallel plates (Keysight Technologies, Santa Rosa, CA, US) was interfaced to the Alpha-A mainframe while utilizing the ZG2 Dielectric/Impedance General Purpose Interface available from Novocontrol Technologies. Each sample was prepared between parallel plate electrodes with a spacing, d, (typically, d=1 mm) and the complex permittivity (dielectric constant and loss) were evaluated from the phase sensitive measurement of the electrodes voltage difference (Vs) and current (Is). Frequency domain measurements were carried out at discrete frequencies from 0.00001 Hz to 1 MHz. Impedances from 10 milliohms up to 1×10^14 ohms were measured up to a maximum of 4.2 volts AC. For this experiment, however, a fixed AC voltage of 1.0 volts was used. The DC conductivity (the inverse of volume resistivity) can also be extracted from an optimized broadband dielectric relaxation fit function that contains at least one term of the low frequency Havrrilak Negami dielectric relaxation function and one separate frequency dependent conductivity term.

The format of data set [8] is physicochemical. The following applies: 200±2° C., 31.5 days, sealed borosilicate tube. Here is the method:
To evaluate thermal stability, a flame-sealed borosilicate glass tube (50 mm outer diameter, 0.4 mm wall thickness) containing Example 1 [1.0 g, isomeric mixture of 4-Cl(C6H4)O(C9F17)] was completely submerged in a temperature-controlled oil bath at 200±2° C. for 31.5 days.

Consider `F/C(=C(/C(F)(F)F)C(F)(Oc1ccccc1)C(F)(F)C(F)(F)F)C(F)(C(F)(F)F)C(F)(F)F` (centres unmarked) [CE1, (E)-((1,1,1,2,2,3,5,6,7,7,7-Undecafluoro-4,6-bis(trifluoromethyl)hept-4-en-3-yl)oxy)benzene], for which, in data set [1], the “Log Kow” value is above 6.4. Besides, the “Flash Point” value in data set [2] is on record as “None”. Further, the Dielectric strength in data set [3] stood at 38.1 kV. Also, the “Density at 25° C.” value in data set [4] was 1.62 g/mL. Moreover, in data set [5], the “Boiling Point” value amounted to 201 °C. Moreover, the “Viscosity at 0° C.” value in data set [6] turned out to be 8.7 cSt. Moreover, in data set [7], the “Dielectric Constant @ 1 kHz” value stood at 4.42.

With `FC(F)(F)C(=C(Oc1ccccc1)C(F)(F)C(F)(F)F)C(F)(F)F` [CE2], the “Log Kow” value in data set [1] is listed as 5.5. Further, the “Flash Point” value in data set [2] was “None”. In data set [3], this molecule came in with a Dielectric strength of 31.1 kV. Further, the “Density at 25° C.” value in data set [4] came out at 1.51 g/mL. For the same molecule, in data set [5], the “Boiling Point” value came out at 169 °C. Also, the “Viscosity at 0° C.” value in data set [6] came to 3.6 cSt. The “Dielectric Constant @ 1 kHz” value in data set [7] came out at 5.16.

For `F/C(=C(/C(F)(F)F)C(F)(Oc1ccc(F)cc1)C(F)(F)C(F)(F)F)C(F)(C(F)(F)F)C(F)(F)F` (centres unmarked) [CE3, (E)-1-fluoro-4-((1,1,1,2,2,3,5,6,7,7,7-undecafluoro-4,6-bis(trifluoromethyl)hept-4-en-3-yl)oxy)benzene], the “Log Kow” value in data set [1] was above 6.4. In addition, the “Flash Point” value in data set [2] is given as “None”. Also, in data set [3], the Dielectric strength came out at 38.1 kV. Besides, the “Density at 25° C.” value in data set [4] turned out to be 1.68 g/mL. Moreover, in data set [5], the “Boiling Point” value came out at 206 °C and the “Boiling point above non-chlorinated analog” value came out at 5 °C. Moreover, the “Viscosity at 0° C.” value in data set [6] was 11.8 cSt. In addition, in data set [7], the “Dielectric Constant @ 1 kHz” value stood at 2.63.

As to `F/C(=C(/C(F)(F)F)C(F)(Oc1ccc(Cl)cc1)C(F)(F)C(F)(F)F)C(F)(C(F)(F)F)C(F)(F)F` (centres unmarked) [Ex. 1, (E)-1-chloro-4-((1,1,1,2,2,3,5,6,7,7,7-undecafluoro-4,6-bis(trifluoromethyl)hept-4-en-3-yl)oxy)benzene], the “Log Kow” value in data set [1] is listed as above 6.4. Also, the “Flash Point” value in data set [2] was “None”. The same molecule came in with a Dielectric strength in data set [3] of 46.6 kV. For the same molecule, the “Density at 25° C.” value in data set [4] worked out at 1.65 g/mL. Besides, in data set [5], the “Boiling Point” value came out at 223 °C and the “Boiling point above non-chlorinated analog” value was “at least 22 °C”. Moreover, in data set [6], the “Viscosity at 0° C.” value is 24.1 cSt. In addition, the “4-Cl(C6H4)O(C9F17) isomers by GC-FID, before and after heating” value in data set [8] was found to be 99.9±0.1%. Also, the “Dielectric Constant @ 1 kHz” value in data set [7] is listed as 2.57.

Regarding `FC(F)(F)C(=C(Oc1ccc(Cl)cc1)C(F)(F)C(F)(F)F)C(F)(F)F` [Ex. 2, 1-chloro-4-((1,1,1,4,4,5,5,5-octafluoro-2-(trifluoromethyl)pent-2-en-3-yl)oxy)benzene], the “Flash Point” value in data set [2] is “None”. Besides, in data set [3], the Dielectric strength was 50.7 kV. Further, the “Density at 25° C.” value in data set [4] was 1.58 g/mL. In data set [5], the “Boiling Point” value worked out at 193 °C and the “Boiling point above non-chlorinated analog” value was “at least 22 °C”. Besides, the “Viscosity at 0° C.” value in data set [6] was found to be 8.4 cSt. For the same molecule, the “Dielectric Constant @ 1 kHz” value in data set [7] was determined as 2.76.

For `F/C(=C(/C(F)(F)F)C(F)(Oc1cc(Cl)cc(Cl)c1)C(F)(F)C(F)(F)F)C(F)(C(F)(F)F)C(F)(F)F` (centres unmarked) [Ex. 3, (E)-1,3-dichloro-5-((1,1,1,2,2,3,5,6,7,7,7-undecafluoro-4,6-bis(trifluoromethyl)hept-4-en-3-yl)oxy)benzene], in data set [2], the “Flash Point” value was “None”. Further, the “Density at 25° C.” value in data set [4] was 1.70 g/mL. Further, in data set [5], the “Boiling Point” value came out at 237 °C and the “Boiling point above non-chlorinated analog” value is 35 °C. The “Viscosity at 0° C.” value in data set [6] was 40.8 cSt. The “Dielectric Constant @ 1 kHz” value in data set [7] came to 2.54.
